Reference: PMC7181660, “A novel specific PERK activator reduces toxicity and extends survival in Huntington's disease models” (Scientific Reports, 2020)
Like-named read-outs stand apart in the source and are kept apart here.

Legend:
Test in all cases: biochemical
Type in all cases: biochemical
panel of 391 kinases [1] = target: panel of 391 kinases (Homo sapiens, UniProt Q8TD08); conditions: ERK7/MAPK15, MK-28 1 µM, ATP 1 µM
panel of 391 kinases [2] = target: panel of 391 kinases (Homo sapiens, UniProt Q13470); conditions: TNK1, MK-28 1 µM, ATP 1 µM
panel of 391 kinases [3] = target: panel of 391 kinases (Homo sapiens, UniProt P54760); conditions: EPHB4; MK-28 1 µM; ATP 1 µM; read-out: % Enzyme Activity (relative to DMSO controls)
panel of 391 kinases [4] = target: panel of 391 kinases (Homo sapiens, UniProt O96017); conditions: CHK2, MK-28 1 µM, ATP 1 µM
panel of 391 kinases [5] = target: panel of 391 kinases (Homo sapiens, UniProt P49760); conditions: CLK2, MK-28 1 µM, ATP 1 µM
panel of 391 kinases [6] = target: panel of 391 kinases (Homo sapiens, UniProt Q16566); conditions: CAMK4, MK-28 1 µM, ATP 1 µM
panel of 391 kinases [7] = target: panel of 391 kinases (Homo sapiens, UniProt P37023); conditions: ALK1/ACVRL1, MK-28 1 µM, ATP 1 µM
panel of 391 kinases [8] = target: panel of 391 kinases (Homo sapiens, UniProt P21802); conditions: FGFR2, MK-28 1 µM, ATP 1 µM
panel of 391 kinases [9] = target: panel of 391 kinases (Homo sapiens, UniProt P11802); conditions: MK-28 1 µM, ATP 1 µM; for remaining activity at 1 µM: read-out: % Enzyme Activity (relative to DMSO controls)
panel of 391 kinases [10] = target: panel of 391 kinases (Homo sapiens, UniProt Q6P3R8); conditions: NEK5, MK-28 1 µM, ATP 1 µM
panel of 391 kinases [11] = target: panel of 391 kinases (Homo sapiens, UniProt Q9UPE1); conditions: MSSK1/STK23, MK-28 1 µM, ATP 1 µM
panel of 391 kinases [12] = target: panel of 391 kinases (Homo sapiens, UniProt Q8IYT8); conditions: ULK2, MK-28 1 µM, ATP 1 µM
panel of 391 kinases [13] = target: panel of 391 kinases (Homo sapiens, UniProt Q8IW41); conditions: MAPKAPK5/PRAK, MK-28 1 µM, ATP 1 µM
panel of 391 kinases [14] = target: panel of 391 kinases (Homo sapiens, UniProt Q12851); conditions: GCK/MAP4K2, MK-28 1 µM, ATP 1 µM
panel of 391 kinases [15] = target: panel of 391 kinases (Homo sapiens, UniProt Q9Y2K2); conditions: SIK3, MK-28 1 µM, ATP 1 µM
panel of 391 kinases [16] = target: panel of 391 kinases (Homo sapiens, UniProt Q16512); conditions: PKN1/PRK1, MK-28 1 µM, ATP 1 µM
panel of 391 kinases [17] = target: panel of 391 kinases (Homo sapiens, UniProt P00519); conditions: ABL1, MK-28 1 µM, ATP 1 µM
panel of 391 kinases [18] = target: panel of 391 kinases (Homo sapiens, UniProt Q07912); conditions: ACK1, MK-28 1 µM, ATP 1 µM
panel of 391 kinases [19] = target: panel of 391 kinases (Homo sapiens, UniProt Q07002); conditions: CDK18/cyclin Y (PCTK3), MK-28 1 µM, ATP 1 µM
panel of 391 kinases [20] = target: panel of 391 kinases (Homo sapiens, UniProt Q00526); conditions: MK-28 1 µM, ATP 1 µM; for remaining activity at 1 µM: read-out: % Enzyme Activity (relative to DMSO controls)
panel of 391 kinases [21] = target: panel of 391 kinases (Homo sapiens, UniProt P29322); conditions: EPHA8, MK-28 1 µM, ATP 1 µM
panel of 391 kinases [22] = target: panel of 391 kinases (Homo sapiens, UniProt P49137); conditions: MAPKAPK2, MK-28 1 µM, ATP 1 µM
panel of 391 kinases [23] = target: panel of 391 kinases (Homo sapiens, UniProt O94804); conditions: LOK/STK10, MK-28 1 µM, ATP 1 µM
panel of 391 kinases [24] = target: panel of 391 kinases (Homo sapiens, UniProt Q8TDC3); conditions: BRSK1, MK-28 1 µM, ATP 1 µM
panel of 391 kinases [25] = target: panel of 391 kinases (Homo sapiens, UniProt P52564); conditions: MKK6, MK-28 1 µM, ATP 1 µM
panel of 391 kinases [26] = target: panel of 391 kinases (Homo sapiens, UniProt Q04771); conditions: ALK2/ACVR1, MK-28 1 µM, ATP 1 µM
[27] = read-out: % Enzyme Activity (relative to DMSO controls)

With `CN(/N=C\c1ccc(O)c(O)c1)c1nc(-c2ccccc2)cc(-c2ccccc2)n1` [MK-28] the “% Enzyme Activity (relative to DMSO controls)” value (panel of 391 kinases [1]) was 103.38%, the remaining activity at 1 µM (panel of 391 kinases [1]; [27]) was 105% and the “% Enzyme Activity (relative to DMSO controls)” value (panel of 391 kinases [2]) was 104.14%. The remaining activity at 1 µM (panel of 391 kinases [2]; [27]) was 108%, the remaining activity at 1 µM (panel of 391 kinases [3]) was 92.8% and the “% Enzyme Activity (relative to DMSO controls)” value (panel of 391 kinases [4]) was 98.51%. For the same compound, the remaining activity at 1 µM (panel of 391 kinases [4]; [27]) was 101%, the “% Enzyme Activity (relative to DMSO controls)” value (panel of 391 kinases [5]) was 103.52% and the remaining activity at 1 µM (panel of 391 kinases [5]; [27]) was 108%. The “% Enzyme Activity (relative to DMSO controls)” value (panel of 391 kinases [6]) was 99.67%, the remaining activity at 1 µM (panel of 391 kinases [6]; [27]) was 101% and the “% Enzyme Activity (relative to DMSO controls)” value (panel of 391 kinases [7]) was 91.36%. The remaining activity at 1 µM (panel of 391 kinases [7]; [27]) was 94.7%, the “% Enzyme Activity (relative to DMSO controls)” value (panel of 391 kinases [8]) was 102.46% and the remaining activity at 1 µM (panel of 391 kinases [8]; [27]) was 103%. The “% Enzyme Activity (relative to DMSO controls)” value (panel of 391 kinases [9]; CDK4/cyclin D1) was 95.51%, the remaining activity at 1 µM (panel of 391 kinases [9]; CDK4/cyclin D1) was 95.6% and the “% Enzyme Activity (relative to DMSO controls)” value (panel of 391 kinases [9]; CDK4/cyclin D3) was 98.69%. For the same compound, the remaining activity at 1 µM (panel of 391 kinases [9]; CDK4/cyclin D3) was 100%, the “% Enzyme Activity (relative to DMSO controls)” value (panel of 391 kinases [10]) was 79.32% and the remaining activity at 1 µM (panel of 391 kinases [10]; [27]) was 81.8%. The “% Enzyme Activity (relative to DMSO controls)” value (panel of 391 kinases [11]) was 107.79%, the remaining activity at 1 µM (panel of 391 kinases [11]; [27]) was 108% and the “% Enzyme Activity (relative to DMSO controls)” value (panel of 391 kinases [12]) was 98.62%. The remaining activity at 1 µM (panel of 391 kinases [12]; [27]) was 102%, the “% Enzyme Activity (relative to DMSO controls)” value (panel of 391 kinases [13]) was 77.52% and the remaining activity at 1 µM (panel of 391 kinases [13]; [27]) was 77.8%. For the same compound, the “% Enzyme Activity (relative to DMSO controls)” value (panel of 391 kinases [14]) was 97.18%, the remaining activity at 1 µM (panel of 391 kinases [14]; [27]) was 97.2% and the “% Enzyme Activity (relative to DMSO controls)” value (panel of 391 kinases [15]) was 101.97%. The remaining activity at 1 µM (panel of 391 kinases [15]; [27]) was 105%, the “% Enzyme Activity (relative to DMSO controls)” value (panel of 391 kinases [16]) was 112.74% and the remaining activity at 1 µM (panel of 391 kinases [16]; [27]) was 113%. The “% Enzyme Activity (relative to DMSO controls)” value (panel of 391 kinases [17]) was 94.94%, the remaining activity at 1 µM (panel of 391 kinases [17]; [27]) was 98.9% and the “% Enzyme Activity (relative to DMSO controls)” value (panel of 391 kinases [18]) was 98.95%. The remaining activity at 1 µM (panel of 391 kinases [18]; [27]) was 113%, the “% Enzyme Activity (relative to DMSO controls)” value (panel of 391 kinases [19]) was 109.27% and the remaining activity at 1 µM (panel of 391 kinases [19]; [27]) was 111%. For the same compound, the “% Enzyme Activity (relative to DMSO controls)” value (panel of 391 kinases [20]; CDK3/cyclin E2) was 90.11%, the remaining activity at 1 µM (panel of 391 kinases [20]; CDK3/cyclin E2) was 92.8% and the “% Enzyme Activity (relative to DMSO controls)” value (panel of 391 kinases [20]; CDK3/cyclin E) was 101.82%. For the same compound, the remaining activity at 1 µM (panel of 391 kinases [20]; CDK3/cyclin E) was 102%, the “% Enzyme Activity (relative to DMSO controls)” value (panel of 391 kinases [21]) was 98.42% and the remaining activity at 1 µM (panel of 391 kinases [21]; [27]) was 98.7%. For the same compound, the “% Enzyme Activity (relative to DMSO controls)” value (panel of 391 kinases [22]) was 93.81%, the remaining activity at 1 µM (panel of 391 kinases [22]; [27]) was 94% and the “% Enzyme Activity (relative to DMSO controls)” value (panel of 391 kinases [23]) was 100.78%. For the same compound, the remaining activity at 1 µM (panel of 391 kinases [23]; [27]) was 101%, the “% Enzyme Activity (relative to DMSO controls)” value (panel of 391 kinases [24]) was 90.51% and the remaining activity at 1 µM (panel of 391 kinases [24]; [27]) was 92.8%. The “% Enzyme Activity (relative to DMSO controls)” value (panel of 391 kinases [25]) was 94.11%, the remaining activity at 1 µM (panel of 391 kinases [25]; [27]) was 95.6% and the “% Enzyme Activity (relative to DMSO controls)” value (panel of 391 kinases [26]) was 102.33%. The remaining activity at 1 µM (panel of 391 kinases [26]; [27]) was 108%.
